Reference: ChEMBL document CHEMBL4480359, “Phosphotyrosine prodrugs: design, synthesis and anti-STAT3 activity of ISS-610 aryloxy triester phosphoramidate prodrugs” (Medchemcomm, 2019)
Activity calls are given as the source filed them. The rule behind the calls is not given here.

Legend:
[1] = biological target: Signal transducer and activator of transcription 3 (Homo sapiens) (UniProt P40763); assay: Inhibition of STAT3 dimerization in human MDA-MB-231 cells assessed as down-regulation of Bcl-xl protein expression at 0.1 to 100 uM after 24 hrs by Western blot analysis; format: cell-based
Chain of Signal transducer and activator of transcription 3 (Homo sapiens) (P40763 whole entry): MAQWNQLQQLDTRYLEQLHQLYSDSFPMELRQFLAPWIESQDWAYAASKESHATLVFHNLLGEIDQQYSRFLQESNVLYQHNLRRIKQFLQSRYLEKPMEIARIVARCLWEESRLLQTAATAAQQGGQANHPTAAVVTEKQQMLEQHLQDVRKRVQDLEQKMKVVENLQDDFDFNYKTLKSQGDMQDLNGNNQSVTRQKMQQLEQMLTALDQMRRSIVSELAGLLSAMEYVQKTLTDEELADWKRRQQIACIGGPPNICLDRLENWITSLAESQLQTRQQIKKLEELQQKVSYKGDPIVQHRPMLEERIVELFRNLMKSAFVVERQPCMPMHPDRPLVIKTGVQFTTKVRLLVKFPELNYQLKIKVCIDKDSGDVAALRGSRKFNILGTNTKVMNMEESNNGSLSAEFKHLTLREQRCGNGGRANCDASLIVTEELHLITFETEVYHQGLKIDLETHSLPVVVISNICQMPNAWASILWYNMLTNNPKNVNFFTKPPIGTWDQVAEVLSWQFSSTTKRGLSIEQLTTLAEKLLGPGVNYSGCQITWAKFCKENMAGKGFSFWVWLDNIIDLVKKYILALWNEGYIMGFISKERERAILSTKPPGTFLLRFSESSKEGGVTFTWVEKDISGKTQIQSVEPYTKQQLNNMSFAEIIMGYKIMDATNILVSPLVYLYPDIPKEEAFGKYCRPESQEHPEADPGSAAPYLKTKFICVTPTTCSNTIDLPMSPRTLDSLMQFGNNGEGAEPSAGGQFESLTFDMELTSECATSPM

[2] = biological target: Signal transducer and activator of transcription 3 (Homo sapiens) (UniProt P40763); assay: Inhibition of STAT3 dimerization in human MDA-MB-231 cells assessed as down-regulation of survivin protein expression at 0.1 to 100 uM after 24 hrs by Western blot analysis; format: cell-based
[3] = biological target: Signal transducer and activator of transcription 3 (Homo sapiens) (UniProt P40763); assay: Inhibition of STAT3 dimerization in human MDA-MB-231 cells assessed as down-regulation of survivin protein expression at 30 uM after 24 hrs by Western blot analysis; format: cell-based
[4] = Stability in human serum assessed as phosphorus peak formation measured over 12 hrs by [31P]-NMR analysis; format: ADME, cell-free
[5] = Stability in human serum incubated for 12 hrs by mass spectrometric analysis; format: ADME, cell-free

Row | Structure (SMILES) | inhibition [1] | Stability [4] | Stability [5] | inhibition [2] | inhibition [3]
1 | CC(C)C[C@H](NC(=O)[C@H](Cc1ccc(OP(=O)(O)O)cc1)NC(=O)c1ccc(C#N)cc1)C(=O)O | inactive | – | – | inactive | –
2 | COC(=O)[C@H](CC(C)C)NC(=O)[C@H](Cc1ccc(OP(=O)(O)O)cc1)NC(=O)c1ccc(C#N)cc1 | inactive | – | – | inactive | –

Now from value to compound, other results behind:

Row | inhibition [1] | Stability [4] | Stability [5] | Structure (SMILES) | inhibition [2] | inhibition [3]
3 | Active | – | – | COC(=O)[C@H](CC(C)C)NC(=O)[C@H](Cc1ccc(OP(=O)(N[C@@H](C)C(=O)OCc2ccccc2)Oc2cccc3ccccc23)cc1)NC(=O)c1ccc(C#N)cc1 (some centres undefined) | Active | –
4 | Active | – | – | COC(=O)[C@H](C)NP(=O)(Oc1ccc(C[C@H](NC(=O)c2ccc(C#N)cc2)C(=O)N[C@@H](CC(C)C)C(=O)OC)cc1)Oc1cccc2ccccc12 (some centres undefined) | Active | Active
5 | Active | Stable | Stable | COC(=O)[C@H](CC(C)C)NC(=O)[C@H](Cc1ccc(OP(=O)(N[C@@H](C)C(=O)OC(C)C)Oc2cccc3ccccc23)cc1)NC(=O)c1ccc(C#N)cc1 (some centres undefined) | Active | Active
